Data reported in patent US8124637B2, “Anthra [1, 2-d]imidazole-6,11-dione derivatives, preparation method and application thereof” (National Defense Medical Center, priority 2010, dated 2012).

What was measured:
SK-MEL-5 = assay: NCI 60-cell drug screen, one dose; type: cell-based, human; settings: Melanoma SK-MEL-5, 1.00E−5 Molar
Summary of the method: (§1)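 Cells were exposed to drug at one set concentration for 48 hours. Protein content was then stained with sulforhodamine B and quantified colorimetrically. Loss of protein signal indicated growth inhibition or cell toxicity.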

KM12 = assay: NCI 60-cell drug screen, one dose; type: cell-based, human; settings: Colon Cancer KM12, 1.00E−5 Molar
Summary of the method: as §1

M14 = assay: NCI 60-cell drug screen, one dose; type: cell-based, human; settings: Melanoma M14, 1.00E−5 Molar
Summary of the method: as §1

SR = assay: NCI 60-cell drug screen, one dose; type: cell-based, human; settings: Leukemia SR, 1.00E−5 Molar
Summary of the method: as §1

SF-295 = assay: NCI 60-cell drug screen, one dose; type: cell-based, human; settings: CNS Cancer SF-295, 1.00E−5 Molar
Summary of the method: as §1

A549/ATCC = assay: NCI 60-cell drug screen, one dose; type: cell-based, human; settings: Non-Small Cell Lung Cancer A549/ATCC, 1.00E−5 Molar
Summary of the method: as §1

HOP-92 = assay: NCI 60-cell drug screen, one dose; type: cell-based, human; settings: Non-Small Cell Lung Cancer HOP-92, 1.00E−5 Molar
Summary of the method: as §1

MOLT-4 = assay: NCI 60-cell drug screen, one dose; type: cell-based, human; settings: Leukemia MOLT-4, 1.00E−5 Molar
Summary of the method: as §1

SF-268 = assay: NCI 60-cell drug screen, one dose; type: cell-based, human; settings: CNS Cancer SF-268, 1.00E−5 Molar
Summary of the method: as §1

NCI/ADR-RES = assay: NCI 60-cell drug screen, one dose; type: cell-based, human; settings: Ovarian Cancer NCI/ADR-RES, 1.00E−5 Molar
Summary of the method: as §1

OVCAR-8 = assay: NCI 60-cell drug screen, one dose; type: cell-based, human; settings: Ovarian Cancer OVCAR-8, 1.00E−5 Molar
Summary of the method: as §1

MDA-MB-231/ATCC = assay: NCI 60-cell drug screen, one dose; type: cell-based, human; settings: Breast Cancer MDA-MB-231/ATCC, 1.00E−5 Molar
Summary of the method: as §1

OVCAR-5 = assay: NCI 60-cell drug screen, one dose; type: cell-based, human; settings: Ovarian Cancer OVCAR-5, 1.00E−5 Molar
Summary of the method: as §1

MDA-MB-468 = assay: NCI 60-cell drug screen, one dose; type: cell-based, human; settings: Breast Cancer MDA-MB-468, 1.00E−5 Molar
Summary of the method: as §1

[1] = NCI 60-cell drug screen, one dose; type: cell-based, human; settings: Renal Cancer A489, 1.00E−5 Molar
Summary of the method: as §1

UACC-62 = assay: NCI 60-cell drug screen, one dose; type: cell-based, human; settings: Melanoma UACC-62, 1.00E−5 Molar
Summary of the method: as §1

MCF7 = assay: NCI 60-cell drug screen, one dose; type: cell-based, human; settings: Breast Cancer MCF7, 1.00E−5 Molar
Summary of the method: as §1

ACHN = assay: NCI 60-cell drug screen, one dose; type: cell-based, human; settings: Renal Cancer ACHN, 1.00E−5 Molar
Summary of the method: as §1

SW-620 = assay: NCI 60-cell drug screen, one dose; type: cell-based, human; settings: Colon Cancer SW-620, 1.00E−5 Molar
Summary of the method: as §1

CCRF-CEM = assay: NCI 60-cell drug screen, one dose; type: cell-based, human; settings: Leukemia CCRF-CEM, 1.00E−5 Molar
Summary of the method: as §1

HCT-116 = assay: NCI 60-cell drug screen, one dose; type: cell-based, human; settings: Colon Cancer HCT-116, 1.00E−5 Molar
Summary of the method: as §1

PC-3 = assay: NCI 60-cell drug screen, one dose; type: cell-based, human; settings: Prostate Cancer PC-3, 1.00E−5 Molar
Summary of the method: as §1

UO-31 = assay: NCI 60-cell drug screen, one dose; type: cell-based, human; settings: Renal Cancer UO-31, 1.00E−5 Molar
Summary of the method: as §1

MALME-3M = assay: NCI 60-cell drug screen, one dose; type: cell-based, human; settings: Melanoma MALME-3M, 1.00E−5 Molar
Summary of the method: as §1

IGROV1 = assay: NCI 60-cell drug screen, one dose; type: cell-based, human; settings: Ovarian Cancer IGROV1, 1.00E−5 Molar
Summary of the method: as §1

DU145 = assay: NCI 60-cell drug screen, one dose; type: cell-based, human; settings: Prostate Cancer DU145, 1.00E−5 Molar
Summary of the method: as §1

SNB-75 = assay: NCI 60-cell drug screen, one dose; type: cell-based, human; settings: CNS Cancer SNB-75, 1.00E−5 Molar
Summary of the method: as §1

HCC-2998 = assay: NCI 60-cell drug screen, one dose; type: cell-based, human; settings: Colon Cancer HCC-2998, 1.00E−5 Molar
Summary of the method: as §1

T-47D = assay: NCI 60-cell drug screen, one dose; type: cell-based, human; settings: Breast Cancer T-47D, 1.00E−5 Molar
Summary of the method: as §1

[2] = MTT assay (relative cell survival), H1299; settings: human, H1299 non-small cell lung cancer cells (PhTERT-SEAP), Relative MTT viability (%), 1 μM
[3] = test system: 60 kinds of different human cancer cells; assay: NCI 60-cell drug screen, one dose, whole panel; type: cell-based; settings: mean over the tested cell lines, 1.00E−5 Molar
Description: In brief, cellular protein levels were determined after 48 hours of drug exposure by sulforhodamine B colorimetry.
The screening system in United State National Cancer Institute (NCI) consists of 60 kinds of different human cancer cells, which can be used to assay the growth-inhibiting ability or cell toxicity of a compound against various cancer and tumor at a certain concentration. The NCI had selected 6 compounds synthesized above, and performed cell toxicity assay against 60 kinds of cancer cell strains (Table 2) (DTP Human Tumor Cell Line Screen), in which each compound was assayed at a certain concentration to observe its inhibition ability or cell toxicity against various kinds of cancer and tumor.

Compound: CN(CCc1ccccn1)Cc1nc2ccc3c(c2[nH]1)C(=O)c1ccccc1C3=O [CL07, 2-((N-methyl-2-(pyridin-2-yl)ethanamino)methyl)-1H-anthra[1,2-d]imidazole-6,11-dione]
- Growth Percent (SK-MEL-5): 75.48%
- Growth Percent (KM12): 89.03%
- Growth Percent (M14): 106.97%
- Growth Percent (SR): 70.10%
- Growth Percent (SF-295): 105.86%
- Growth Percent (A549/ATCC): 106.30%
- Growth Percent (HOP-92): 101.41%
- Growth Percent (MOLT-4): 47.54%
- Growth Percent (SF-268): 85.87%
- Growth Percent (NCI/ADR-RES): 86.11%
- Growth Percent (OVCAR-8): 80.59%
- Growth Percent (MDA-MB-231/ATCC): 88.98%
- Growth Percent (OVCAR-5): 109.14%
- Growth Percent (MDA-MB-468): 77.09%
- Growth Percent [1]: 69.60%
- Growth Percent (UACC-62): 89.67%
- Growth Percent (MCF7): 69.06%
- Growth Percent (ACHN): 80.20%
- Growth Percent (SW-620): 100.52%
- Growth Percent (CCRF-CEM): 39.91%
- Growth Percent (HCT-116): 83.56%
- Growth Percent (PC-3): 99.83%
- Growth Percent (UO-31): 49.49%
- Growth Percent (MALME-3M): 107.00%
- Growth Percent (IGROV1): 54.26%
- Growth Percent (DU145): 83.70%
- Growth Percent (SNB-75): 81.62%
- Growth Percent (HCC-2998): 95.82%
- Growth Percent (T-47D): 68.45%
- viability at 72 h, 1 µM [2]: 104.3 ± 0.96%
- Growth Percent, Mean [3]: 89.07%
